The values that follow come from US5332739A, “Pyrimidinedione derivatives and antiarrhythmic agents containing same” (Mitsui Toatsu Chemicals, Incorporated, priority 1990, dated 1994).

The test system of series [1] is ventricular muscle (right ventricle). Description: Influence on Ventricular Muscle Refractory Period (ERP). Type of series: in vivo, mongrel adult dog. As to conditions: Canis lupus familiaris, iv, anesthetized dog, read-out: ERP (%; extensibility of refractory period); for change in vivo at 0.1 mg/kg: Dose 0.1 mg/kg i.v.; for change in vivo at 0.3 mg/kg: Dose 0.3 mg/kg i.v.; for change in vivo at 1 mg/kg: Dose 1.0 mg/kg i.v.; for change in vivo at 3 mg/kg: Dose 3.0 mg/kg i.v. As to the method:
Refractory periods were measured in the following manner before and after each of the compounds and d-sotalol shown an Table A was separately administered to a vein or a duodenum, and ERP (%; extensibility of refractory period) was calculated from the measured values in accordance with the following formula: […]
W: Refractory period after administration
Y: Refractory period before administration
To a mongrel adult dog, 30 mg/kg of pentobarbital was administered intravenously, and after being anesthetized, a pair of silver-silver chloride electrodes separated by 3 mm was sewn on an opened right ventricule, and electrical stimulation was given at an interval of 400 msec at a duration time of 4 msec under a current twice as much as the threshold. Afterward, a small amount of alcohol was injected into a sinus artery in order to extinguish a pacemaker activity, and the ventricular refractory period (ERP) was measured under ventricule pacing.
That is, 1 train comprised 10 stimulations, and an interval between two of the trains was usually 400 msec. At the time of the refractory period measurement, however, the above interval was shortened every 10 smec, and the interval between the trains at the time when reaction to the first stimulation of the train disappeared was regarded as the refractory period.
In this case, the electrical stimulation was fed in accordance with a program by a heart stimulation device (Diamedical Co., Ltd.; DHM-226-3).

The subject of series [2] is Purkinje fiber of the right ventricular free wall. The series is described as follows: Influence on Myocardial Action Potential Duration Time (APD75). The note with it: Canis lupus familiaris, 20 min, 20 minutes' incubation, 1 Hz, 37° C.; for percent prolongation of action potential duration (APD75) at 1 µg/mL: Dose 1.0 (μg, ml); for percent prolongation of action potential duration (APD75) at 3 µg/mL: Dose 3.0 (μg, ml); for percent prolongation of action potential duration (APD75) at 10 µg/mL: Dose 10.0 (μg, ml). Type of series: cell-based, hybrid adult dog. As to the method:
To a hybrid adult dog, 30 mg/kg of pentobarbital was administered through a vein, and after being anesthetized, the heart was removed. Afterward, the right ventricular free wall of the heart was cut and taken out in a Tyrode solution.
The taken right ventricular free wall was fixed in an incubator at 37° C., and a nutritional solution (20 ml of the Tyrode solution) was refluxed.
In this isolated condition, myocardial action potential duration times (APD75) were measured before and after the administration of the respective compounds prepared in the above examples in Table A and d-sotalol as a control medicine, and APD75 (%) was calculated from the measured results in accordance with the formula: […]
A: APD75 before administration
B: APD75 after administration
Here, APD75 was measured as follows: A field stimulation of 1 Hz was given to the right ventricular free wall, and any variation of an action potential was depicted on an oscilloscope via a glass microelectrode (10 to 20 M.OMEGA.) thrust into a Purkinje fiber of the free wall and via an amplifier. Afterward, a waveform on the oscilloscope was analyzed by the use of a computer, and the time of from a point of the action potential generation to a point of 75% repolarization was measured. This measured time was regarded as the myocardial action potential duration time (APD75).
The compounds and d-sotalol shown in Table A were separately added to the refluxing nutritional solution (20 ml), and after 20 minutes' incubation, APD75 after the administration was calculated from the variation of the myocardial action potential duration time.
Incidentally, this test was carried out in accordance with a Sato et al's method [H. Sato, K. Hashimoto, Arzneimeittel Forschung, 34 (1), 3a, 376-380 (1984)].

A short description of series [3]: Toxicity Test 1 (oral, mortality 24 hours after administration). As to conditions: mouse, in vivo, 300 mg/kg (P.O), 2 to 4 mice per group, read-out: Mortality Rate (%). As to the method:
Each of the compounds prepared in the above-mentioned examples shown in Table B was administered into a mouse (ddy strain, male). In each case, the administration was effected by oral administration in a dose of 300 mg/kg.
A mortality rate (number of specimens: one group=2 to 4 mice) of the mice 24 hours after the administration was calculated, and the results are set forth in Table B.

Counter-ions that a name gives are not always drawn.

Consider `COC(=O)c1ccccc1OCCCN1CCN(c2cc(=O)n(C)c(=O)n2C)CC1` [Compound 21], for which, in series [1], the change in vivo at 0.1 mg/kg was 7.1%, the change in vivo at 0.3 mg/kg turned out to be 7.1%, the change in vivo at 1 mg/kg turned out to be 7.1% and the change in vivo at 3 mg/kg stood at 14.3%. In addition, in series [2], the percent prolongation of action potential duration (APD75) at 1 µg/mL came out at 11%, the percent prolongation of action potential duration (APD75) at 3 µg/mL worked out at 23% and the percent prolongation of action potential duration (APD75) at 10 µg/mL stood at 26%. Besides, the mortality (as a rule, the share of the test organisms that died) at 24 h in series [3] turned out to be 0%.

In the case of `CC(=O)c1cc(Cl)ccc1OCCCN1CCN(c2cc(=O)n(C)c(=O)n2C)CC1` [Compound 45], in series [1], the change in vivo at 0.1 mg/kg was found to be 0%, the change in vivo at 0.3 mg/kg was 2.4%, the change in vivo at 1 mg/kg was 9.5% and the change in vivo at 3 mg/kg was found to be 18.6%. In series [2], this compound showed a percent prolongation of action potential duration (APD75) at 1 µg/mL of 42%, a percent prolongation of action potential duration (APD75) at 3 µg/mL of 71% and a percent prolongation of action potential duration (APD75) at 10 µg/mL of 75%. Also, the mortality at 24 h in series [3] was found to be 50%.

Take `Cn1c(N2CCN(CCCOc3ccc(Cl)cc3)CC2)cc(=O)n(C)c1=O` [Compound 64, 6-[4-(3-[4-chlorophenoxy]propyl)piperazin-1-yl]-1,3-dimethyl-2,4(1H,3H)-pyrimidinedione.hydrochloride]: in series [1], the change in vivo at 0.1 mg/kg was found to be 2%, the change in vivo at 0.3 mg/kg was determined as 6.3%, the change in vivo at 1 mg/kg is 13% and the change in vivo at 3 mg/kg amounted to 24.3%. In series [2] (Dose 0.3 (μg, ml)), this compound displayed a percent prolongation of action potential duration (APD75) at 0.3 µg/mL of 7%. In series [2], this compound gave a percent prolongation of action potential duration (APD75) at 1 µg/mL of 14% and a percent prolongation of action potential duration (APD75) at 3 µg/mL of 25%. In series [3], the mortality at 24 h is 0%.

Turning to `Cn1c(N2CCN(CCCOc3ccccc3N)CC2)cc(=O)n(C)c1=O` [Compound 69], in series [1], the change in vivo at 0.1 mg/kg was found to be 0%, the change in vivo at 0.3 mg/kg worked out at 6.3% and the change in vivo at 1 mg/kg stood at 12.5%. In series [2], this compound had a percent prolongation of action potential duration (APD75) at 3 µg/mL of 24% and a percent prolongation of action potential duration (APD75) at 10 µg/mL of 34%. In series [3], the mortality at 24 h was 0%.
